Values of other authors, collected in patent publication US20060110448A1, “Combination of a macrolide and a local anesthetic for the treatment of dermatological diseases” (priority 2003, published 2006).

Test system: rat model of allogeneic kidney transplantation
Conditions: oral administration, suppression of systemic immune response

Q: Which “minimum effective dose (MED)” value does the source give for `C=CC[C@@H]1/C=C(\C)C[C@H](C)C[C@H](OC)[C@H]2O[C@@](O)(C(=O)C(=O)N3CCCC[C@H]3C(=O)O[C@H](/C(C)=C/[C@@H]3CC[C@@H](O)[C@H](OC)C3)[C@H](C)[C@@H](O)CC1=O)[C@H](C)C[C@@H]2OC` [tacrolimus] here?
A: 14 mg/kg
